# Assay results taken from patent US12624068B2, “Exon skipping by peptide nucleic acid derivatives” (OliPass Corporation, priority 2016, dated 2026).
# {Fethoc} = N-terminal Fethoc capping group (publication's abbreviation); [C(1O2)] = modified PNA monomer acting as cytosine, C(pOq) type, 1O2; [A(5)] = modified PNA monomer acting as adenine, A(p) with p=5; [G(5)] = modified PNA monomer acting as guanine, G(p) type, p=5; [G(6)] = modified PNA monomer acting as guanine, G(p) with p=6; {NH2} = C-terminal unsubstituted amide (-NH2); [C(12)] = modified PNA cytosine monomer
# Legend:
# [1] = system: rats with diabetes-induced peripheral neuropathic pain (DPNP); assay: Reversal of allodynia (von Frey) in rats with diabetes-induced peripheral neuropathic pain; format: in vivo, rat; details: 100 pmole/Kg subcutaneous in Days 11, 13, 15, 17 and 19
# Description: “SCN-ASO 7”, “SCN-ASO 8”, “SCN-ASO 21”, “SCN-ASO 35”, “SCN-ASO 36” and “SCN-ASO 37” were evaluated for their ability to reverse the allodynia in rats with diabetes-induced peripheral neuropathic pain (DPNP). In this example, the six SCN9A ASOs targeting a total of five splice sites were evaluated for their ability to reverse the allodynia induced by diabetic neuropathy in rats.
# [Induction of DPNP and Grouping] Diabetes was induced in rats by an intraperitoneal injection of streptozotocin at 60 mg/Kg in Day 0. In Day 10, rats with DPNP were randomly assigned to […] of negative control (vehicle only), “SCN-ASO 7” 100 pmole/Kg, “SCN-ASO 8” 100 pmole/Kg, “SCN-ASO 21” 100 pmole/Kg, “SCN-ASO 35” 100 pmole/Kg, “SCN-ASO 36” 100 pmole/Kg, and “SCN-ASO 37” 100 pmole/Kg. The animals were grouped based on the von Frey scores of individual animals in Day 10. (N=8-9 per group) Allodynia was scored using a set of microfilaments (Touch Test®) according to the “Up & Down” method. [J Neurosci. Methods vol 53(1), 55-63 (1994)]
# [ASO Treatment and von Frey Scoring] ASO solutions for injection were prepared by serially diluting aqueous mother stock solutions of the SCN9A ASOs to 100 nM in PBS (phosphate buffered saline). Animals were subcutaneously administered with ASO at 1 mL/Kg in Days 11, 13, 15, 17 and 19. Von Frey scoring was carried out 2 hours post dose in Days 11, 13, 15, 17 and 19. Von Frey scoring was additionally performed in Days 21 and 23 in order to assess the duration of the therapeutic activity after the final dosing. Daily von Frey scores were evaluated for statistical significance by student's t-test against the negative control group (vehicle only, i.e., PBS).
# [2] = system: human IDO1 pre-mRNA; assay: IDO1 nested PCR for exon skipping in SKOV3 cells; format: cell-based; details: 48 hours
# Description: “IDO-ASO 1” was evaluated for its ability to induce exon skipping in SKOV3 cells (Cat. Number HTB-77, ATCC) by IDO1 nested PCR as follows. [Cell Culture & ASO Treatment] SKOV3 (human ovary adenocarcinoma) cells were subcultured in 60 mm culture dish containing 5 mL McCoy's 5A modified medium supplemented with 10% FBS, 1% streptomycin/penicillin, 1% L-glutamine, and 1% sodium pyruvate under 5% CO2 at 37° C., and treated with “IDO-ASO 1” for 48 hours at 0 zM (negative control), 10 zM, 100 zM or 1 aM. [RNA Extraction & cDNA Synthesis by One-Step RT-PCR] Total RNA was extracted from the cells using “Universal RNA Extraction Kit” (Cat. Number 9767, Takara) according to the manufacturer's instructions. […] NO: 114); and IDO-exon 10_reverse: (5'→3') […] [Nested PCR Amplification] 1 μL of cDNA was further amplified in a 20 μL nested PCR reaction (Cat. No. K2612, Bioneer) against a set of exon-specific primers [IDO-exon 4_forward: (5'→3') […] NO: 116); and IDO-exon 9_reverse: (5'→3') […] [Identification of Exon Skipping Product] The PCR products were subjected to electrophoretic separation on a 2% agarose gel. The bands of target size were collected and analyzed by Sanger sequencing. […] [ASO Treatment] SKOV3 cells grown in 60 mm culture dish were treated with “IDO-ASO 5” at 0 (negative control), 1, 3, 10, 30 or 100 aM for 48 hours. [cDNA Synthesis by One-step PCR] […] NO: 119); and IDO-exon 8_reverse: (5'→3') […] [Nested PCR Amplification] 1 μL of cDNA was further amplified in a 20 μL nested PCR (Cat. No. K2612, Bioneer) reaction using a set of exon-specific primers [IDO-exon 1n_forward: (5'→3') […] NO: 121); and IDO-exon 8n_reverse: (5'→3') […] “IDO-ASO 6” was evaluated for its ability to induce exon skipping in SKOV3 cells by IDO1 nested PCR as described in “IDO1 Example 3” unless noted otherwise.
# [3] = system: B16F10 melanoma; assay: Antitumor activity against B16F10 melanoma in C57BL/6 mice; format: in vivo
# Description: “PD-ASO 2” was evaluated for its antitumor activity in male C57BL/6 mice (4 weeks old) injected with B16F10 melanoma cells as provided below.
# [Inoculation of B16F10 Melanoma Cells] B16F10 mouse melanoma cells (Cat. Number CRL-6475, ATCC) were maintained in 150 mm culture dish containing DMEM supplemented with 10% FBS, 1% streptomycin/penicillin, and 0.01 mg/ml bovine insulin. In Day 0, ca 1×10^5 B16F10 cells dissolved in 50 μL PBS were injected to each animal at the right rear flank.
# [Grouping & ASO Treatment] In Day 3, the animals were randomly assigned by weight to 4 groups of 0 (negative control), 2, 10 and 50 pmole/Kg “PD-ASO 2”. (N=15 per group)
# Injection solutions were prepared by serially diluting an aqueous mother stock solution of “PD-ASO 2” in PBS to 0 nM (PBS only), 0.4 nM, 2 nM and […] “PD-ASO 2” for the negative control, 2, 10 and 50 pmole/Kg “PD-ASO 2” group, respectively.
# The animals were subcutaneously administered with an injection solution at 5 mL/Kg, 2× per week during Day 3 to Day 17.
# [Anti-tumor Activity] The anti-tumor activity was assessed by changes in the tumor volume between each ASO treatment group and the negative control group.
# [4] = 2 pmole/Kg subcutaneous, 2× per week Day 3 to Day 17
substance,measurement,setting,value
"Fethoc-A(5)TA(5)-CC(1O2)C-TG(6)A-A(5)TC-TG(6)T-NH2 (ATACCCTGAATCTGT; splice-switching; all peptide nucleic acid (PNA), [A(5)] at 1, 3, 10, [C(1O2)] at 5, [G(6)] at 8, 14, 5' {Fethoc}, 3' {NH2}; peptide nucleic acid backbone) [SCN-ASO 36]",maximum therapeutic efficacy based on the von Frey scores in Day 19,[1],0%
"Fethoc-AA(5)G-A(5)C(12)T-CG(6)G-A(5)GC(1O2)-TA(5)-NH2 (AAGACTCGGAGCTA; all peptide nucleic acid (PNA), [A(5)] at 2, 4, 10, 14, [C(12)] at 5, [G(6)] at 8, [C(1O2)] at 12, 5' {Fethoc}, 3' {NH2}) [SCN-ASO 37]",maximum therapeutic efficacy based on the von Frey scores in Day 19,[1],22%
"Fethoc-CA(5)A-A(5)CC(1O2)-TTA(5)-CGG(6)-A-NH2 (CAAACCTTACGGA; splice-switching; all peptide nucleic acid (PNA), [A(5)] at 2, 4, 9, [C(1O2)] at 6, [G(6)] at 12, 5' {Fethoc}, 3' {NH2}; peptide nucleic acid backbone) [IDO-ASO 5]",IDO1 exon skipping by nested PCR,[2]; 30 and 100 aM,clearly yielded the mRNA splice variants lacking exons 2-4 and exons 2-6
"Fethoc-CC(1O2)T-CA(5)C-CTG(5)-TTA(5)-C(1O2)CA(5)-C-NH2 (CCTCACCTGTTACCAC; splice-switching; all peptide nucleic acid (PNA), [C(1O2)] at 2, 13, [A(5)] at 5, 12, 15, [G(5)] at 9, 5' {Fethoc}, 3' {NH2}; peptide nucleic acid backbone) [PD-ASO 2]",average tumor weight in Day 19,[3]; 2 pmole/Kg,~0.35 g
same,inhibition of tumor growth by weight in Day 19,[3]; 2 pmole/Kg,~70%
same,inhibition of tumor growth (tumor volume) in Day 19,[3]; [4],~55%
same,tumor volume in Day 19,[3]; [4],~375 mm^3
same,antitumor activity (tumor volume),"[3]; 10 pmole/Kg, whole period",marginal without significance
same,antitumor activity (tumor volume),"[3]; 50 pmole/Kg, Day 10 to Day 17",comparable to that of the 2 pmole/Kg group
same,antitumor activity (tumor volume),"[3]; 50 pmole/Kg, Day 19",disappeared in Day 19
"Fethoc-GA(5)T-A(5)TG-A(5)GT-G(6)CA(5)-C(1O2)TA(5)-A-NH2 (GATATGAGTGCACTAA; splice-switching; all peptide nucleic acid (PNA), [A(5)] at 2, 4, 7, 12, 15, [G(6)] at 10, [C(1O2)] at 13, 5' {Fethoc}, 3' {NH2}; peptide nucleic acid backbone) [SCN-ASO 35]",maximum therapeutic efficacy based on the von Frey scores in Day 19,[1],52%
"Fethoc-GG(6)C-AA(5)G-A(5)CC(1O2)-TGA(5)-T-NH2 (GGCAAGACCTGAT; splice-switching; all peptide nucleic acid (PNA), [G(6)] at 2, [A(5)] at 5, 7, 12, [C(1O2)] at 9, 5' {Fethoc}, 3' {NH2}; peptide nucleic acid backbone) [IDO-ASO 6]",IDO1 exon skipping by nested PCR,[2]; 1 to 30 aM,clearly yielded a single mRNA splice variant lacking exons 2-5
same,IDO1 exon skipping by nested PCR,[2]; 100 aM,the exon skipping band was not detected
"Fethoc-TA(5)A-A(5)AG(6)-TG(6)T-A(5)CC(1O2)-TA(5)A-A(5)-NH2 (TAAAAGTGTACCTAAA; splice-switching; all peptide nucleic acid (PNA), [A(5)] at 2, 4, 10, 14, 16, [G(6)] at 6, 8, [C(1O2)] at 12, 5' {Fethoc}, 3' {NH2}; peptide nucleic acid backbone) [SCN-ASO 21]",maximum therapeutic efficacy based on the von Frey scores in Day 19,[1],93%
